Laboratory results reported in US20100098657A1, “Method of Treating Cancer with Immunomodulatory Compounds and IgG” (priority 2007, published 2010).
Peptide text beside a SMILES is read from it.

Experiments:
perforin = test: NK cell perforin production; format: cell-based, human; details: inhibitor 40 μM/mL added 1 hour prior to lenalidomide and IL-2
Description: (§1) To determine whether lenalidomide enhances IFN-γ production, the following assay was performed. Human IgG (Sigma), at a concentration of 100 μg/mL was coated onto 96-well, flat-bottom plates at 4° C. overnight. The unbound IgG was then washed away. […] Lenalidomide (Revlimid®, Celgene Corporation, Summit, N.J.) was added to the wells in the concentration range of 0.008-5 μM. After a 48-hour incubation, the supernatants were harvested and interferon-gamma (IFN-γ), as well as granzyme B and perforin levels were measured.

granzyme B = test: NK cell granzyme B production; format: cell-based, human; details: inhibitor 40 μM/mL added 1 hour prior to lenalidomide and IL-2
Description: as §1

[1] = system: Rituximab-treated target cells; test: ADCC in the presence of anti-Fas-L or granzyme inhibitor; format: cell-based; details: lenalidomide plus Rituximab
Description: Lenalidomide addition had no effect on perforin production, however (FIGS. 6B and 6C).

pPLC-γ2 = test: Immunoblot analysis of pPLC-γ2; format: cell-based; details: IL-12 plus IgG
Description: (§2) FIG. 7 is a panel of bar graphs showing the quantitation of an immunoblot comparison of cells treated with either IL-12 alone, IgG alone, IL-12 plus IgG, or IL-12 plus IgG plus lenalidomide (at 0.1 μM to 10 μM).
(§3) Additionally, administration of the immunomodulatory compound lenalidomide was capable of increasing both pPLC-γ2 and pERK levels (FIGS. 7B and 7C). Increase in the levels of these proteins were also observed in connection with pomalidomide (FIGS. 13A and 13B). PLC-γ2 is involved in the maturation and activation of NK cells and triggers the release of lytic granules (Regunathan et al., 2006, Jour. Immunol 175:749-754, which is incorporated by reference herein in its entirety). PLC-γ2 also induces IFN-γ production and is necessary for cytotoxicity and chemokine production.

[2] = system: Cetuximab-coated HCT-116 cells; test: NK cell cytotoxicity against Cetuximab-coated HCT-116 cells; format: cell-based, human; details: presence of IL-2
[3] = system: Rituximab-coated CD20+ Raji cells; test: Monocyte-mediated lysis (ADCC) of Rituximab-coated Raji cells; format: cell-based, human; details: data not shown
Description: NK cells and monocytes were isolated from fresh, buffy-coated, whole blood by 30-minute incubation with RossetteSep cocktail (StemCell Technologies, Inc.) followed by Ficoll-Hypaque density gradient centrifugation. CD56+ NK cells were isolated to ˜85% purity and CD14+ monocytes were isolated to ˜80% purity as determined by flow cytometry.
(§4) Preparation of Rituximab-coated target cancer cells: Various NHL cell lines (Namalwa, Raji, Farage, and Jeko-1) were treated with 20 μg/mL Rituximab (Rituximab, Genentech, Inc.) for 30 minutes at 37° C. Excess unbound Rituximab was then removed by a washing step.
(§5) Cytotoxicity analysis: NK cell cytotoxicity against the tumor cell lines was analyzed using a standard lactate dehydrogenase release assay (CytoTox 96 Non-radioactive Cytotoxicity Assay, Promega) to measure ADCC in a 50 μL aliquot of supernatant. The experimental release was corrected by subtraction of the spontaneous release of effector cells at the corresponding dilution. Spontaneous release from target cells alone was <15% of the maximum release as determined with target cells lysed in 1% Triton X-100.
(§6) Determination of effector: target ratio: Specific lysis for each effector-to-target (E:T) cell ratio was calculated using the following formula: % specific lysis=([experimental release−spontaneous release]/[maximum release−spontaneous release])×100.
To evaluate monocyte ADCC, similar methods were used to prepare the monocytes.

[4] = system: Src homology-2 containing inositol 5′-phosphatase 1 (phospho-SHIP-1); test: Immunoblot analysis of phospho-SHIP-1; format: cell-based; details: IL-12 plus IgG; lenalidomide 10 μM
Description: as §2
SHIP-1 is a negative regulator of cell proliferation, survival, and activation and also a negative regulator of Fc-γ and cytokine receptor-mediated signaling (Parihar et al., 2005, Cancer Res. 65:9099-9107). The inhibition of phospho-SHIP-1 increases IFN-γ release following NK cell stimulation with IgG and IL-12 (Parihar et al., 2005, Cancer Res. 65:9099-9107, which is incorporated by reference herein in its entirety) and thus may contribute to the mechanism of action of lenalidomide.

NK cells = test: NK cell chemokine/cytokine production in response to Trastuzumab-coated SK-BR3 cells; format: cell-based, human
Description: As shown herein, immunomodulatory compounds, either alone or in combination with other agents, can alter the expression of several growth factors.
The effects of immunomodulatory compounds lenalidomide and pomalidomide on NK cell chemokine/cytokine production in response to Trastuzumab-coated SK-BR3 cells were assessed using procedures substantially similar to those described in Section 6.6., above.

pERK = test: Immunoblot analysis of pERK; format: cell-based; details: IL-12 plus IgG
Description: as §2, §3

Fas-L = Fas-L expression on CD56+ NK cells (flow cytometry); format: cell-based, human; details: FIG. 12
Description: Cytometry was undertaken on 50 μL samples containing 1×10^6 cells/mL in washing buffer, 2% FBS with 0.1% NaN3 in PBS. Fluorochrome-conjugated antibodies, unconjugated antibodies, and isotype control mAb were obtained from PharMingen (San Diego, Calif.). The cells were stained with anti-CD56-PE, anti-FasL-FITC or isotype control mAb (1 μg/10^6 cells), and analyzed by flow cytometry according to the manufacturer's instructions.

[5] = system: Rituximab-coated Raji cells; test: ADCC assay: NK cell specific lysis of Rituximab-coated Raji cells; format: cell-based, human
Description: Preparation of NK cells: Purified NK cells (5×10^4) were seeded in 96-well U-bottom plates in 100 μL of 10% RPMI-1640 medium, supplemented with human AB+ serum. […] The cells were then incubated at 37° C. overnight.
as §4
Addition of Rituximab-coated target cells to NK cells: The Rituximab-coated target cells (5×103/100 μL/well) were added to the pretreated effector NK cells at a ratio of 10:1. The cells were then co-incubated for 4 hours at 37° C.
as §5, §6
Enhancement of NK cell cytotoxicity by immunomodulatory compounds lenalidomide and pomalidomide was assessed following procedures substantially similar to those described in Section 6.3, above.

[6] = system: Trastuzumab-coated SK-BR-3 cells; test: NK cell cytotoxicity against Trastuzumab-coated SK-BR-3 cells; format: cell-based, human
[7] = presence of immobilized IgG and IL-2

**Q.** What does the source list for `CC[C@H](C)[C@H](NC(C)=O)C(=O)N[C@@H](CCC(=O)O)C(=O)N[C@H](C(=O)N[C@H](C=O)CC(=O)O)[C@@H](C)O` [granzyme B inhibitor II] (Ac-IETD-aldehyde)?
**A.** effect on IL-2-stimulated perforin production (perforin): inactive; effect on IL-2 stimulated granzyme B production (granzyme B): abrogated; prevention of ADCC [1]: totally prevented

**Q.** What does the source list for `Nc1cccc2c1C(=O)N(C1CCC(=O)NC1=O)C2=O` (stereo not drawn) [pomalidomide, 1,3-dioxo-2-(2,6-dioxopiperidin-3-yl)-4-aminoisoindoline]?
**A.** pPLC-γ2 levels (pPLC-γ2): Increase; NK cell cytotoxicity [2]: significantly increases; monocyte-mediated lysis [3]: enhance; levels of phospho-SHIP-1 [4]: decreased; production of any chemokines/cytokines (NK cells; compound alone): did not induce; production of GM-CSF (NK cells; [7]): dose-dependently enhanced; production of IL-8 (NK cells; [7]): dose-dependently enhanced; production of IP-10 (NK cells; [7]): dose-dependently enhanced; production of MCP-1 (NK cells; [7]): dose-dependently enhanced; production of MIP-1α (NK cells; [7]): dose-dependently enhanced; production of MIP-1β (NK cells; [7]): not; production of RANTES (NK cells; [7]): dose-dependently enhanced; pERK levels (pERK): Increase; NK cell Fas-L expression, results compared with lenalidomide (Fas-L): similar; NK cell cytotoxicity ([5]; presence of IL-2 (FIG. 8B/9B)): significantly increases; NK cell cytotoxicity ([5]; presence of IL-12 (FIG. 8E/9E)): significantly increases; NK cell cytotoxicity ([6]; presence of IL-2): significantly increases; NK cell cytotoxicity ([6]; presence of IL-12): significantly increases
